Assay results taken from patent US7709498B2, “Quinoline derivatives as antibacterial agents” (Janssen Pharmaceutica N.V., priority 2005, dated 2010).
In brackets after ≈: the same amount, converted by molar mass.

Assays:
Assay type in all cases: cell-based
[1] = tested on: Streptococcus mutans (ATCC33402); experiment: Microtitre plate assay, IC90 determination, SMU 33402; conditions: 90% inhibitory concentration for bacterial growth, 37° C., resazurin fluorescence; for IC90 (μg/ml) SMU 33402: 24 hours; for IC90: Streptococcus mutans, ATCC33402, 24 h, read-out: IC90 (μg/ml) SMU 33402
Description: (§1) The bacteria used in this study were grown overnight in flasks containing 100 ml Mueller-Hinton Broth (Becton Dickinson—cat. no. 275730) in sterile de-ionized water, with shaking, at 37° C. Stocks (0.5 ml/tube) were stored at −70° C. until use. Bacteria titrations were performed in microtiter plates to detect the TCID50, in which the TCID50 represents the dilution that gives rise to bacterial growth in 50% of inoculated cultures.
(§2) In general, an inoculum level of approximately 100 TCID50 was used for susceptibility testing.
(§3) Flat-bottom, sterile 96-well plastic microtiter plates were filled with 180 μl of sterile deionized water, supplemented with 0.25% BSA. Subsequently, stock solutions (7.8× final test concentration) of compounds were added in 45 μl volumes in column 2. Serial five-fold dilutions (45 μl in 180 μl) were made directly in the microtiter plates from column 2 to reach column 11. Untreated control samples with (column 1) and without (column 12) inoculum were included in each microtiter plate. Depending on the bacteria type, approximately 10 to 60 CFU per well of bacteria inoculum (100 TCID50), in a volume of 100 μl in 2.8× Mueller-Hinton broth medium, was added to the rows A to H, except column 12. The same volume of broth medium without inoculum was added to column 12 in row A to H. The cultures were incubated at 37° C. for 24 hours under a normal atmosphere (incubator with open air valve and continuous ventilation). At the end of incubation, one day after inoculation, the bacterial growth was quantitated fluorometrically. Therefore resazurin (0.6 mg/ml) was added in a volume of 20 μl to all wells 3 hours after inoculation, and the plates were re-incubated overnight. A change in colour from blue to pink indicated the growth of bacteria. The fluorescence was read in a computer-controlled fluorometer (Cytofluor Biosearch) at an excitation wavelength of 530 nm and an emission wavelength of 590 nm. The % growth inhibition achieved by the compounds was calculated according to standard methods. The IC90 (expressed in μg/ml) was defined as the 90% inhibitory concentration for bacterial growth.
(§4) BSU 3639 means Bacillus subtilis (ATCC43639); ECO 25922 means Escherichia coli (ATCC25922); EFA 14506 means Enterococcus faecalis (ATCC14506); EFA 29212 means Enterococcus faecalis (ATCC29212); LMO 49594 means Listeria monocytogenes (ATCC49594); PAE 27853 means Pseudomonas aeruginosa (ATCC27853); SMU 33402 means Streptococcus mutans (ATCC33402); SPN 6305 means Streptococcus pneumoniae (ATCC6305); SPY 8668 means Streptococcus pyogens (ATCC8668); STA 43300 means Staphylococcus aureus (ATCC43300); STA 25923 means Staphylococcus aureus (ATCC25923); STA 29213 means Staphylococcus aureus (ATCC29213); STA RMETH means methicilline resistant Staphylococcus aureus (MRSA) (a clinical isolate from the University of Antwerp). ATCC means American type tissue culture.

[2] = tested on: Streptococcus pneumoniae (ATCC6305); experiment: Microtitre plate assay, IC90 determination, SPN 6305; conditions: 90% inhibitory concentration for bacterial growth, 37° C., resazurin fluorescence; for IC90 (μg/ml) SPN 6305: 24 hours; for IC90: Streptococcus pneumoniae, ATCC6305, 24 h, read-out: IC90 (μg/ml) SPN 6305
Description: as §1, §2, §3, §4

[3] = tested on: Listeria monocytogenes (ATCC49594); experiment: Microtitre plate assay, IC90 determination, LMO 49594; conditions: 90% inhibitory concentration for bacterial growth, 37° C., resazurin fluorescence; for IC90: Listeria monocytogenes, ATCC49594, 24 h, read-out: IC90 (μg/ml) LMO 49594; for IC90 (μg/ml) LMO 49594: 24 hours
Description: as §1, §2, §3, §4

[4] = tested on: Streptococcus pyogens (ATCC8668); experiment: Microtitre plate assay, IC90 determination, SPY 8668; conditions: 90% inhibitory concentration for bacterial growth, 37° C., resazurin fluorescence; for IC90: Streptococcus, ATCC8668, 24 h, read-out: IC90 (μg/ml) SPY 8668; for IC90 (μg/ml) SPY 8668: 24 hours
Description: as §1, §2, §3, §4

COc1nc2ccc(Br)cc2cc1C(c1ccccc1)C(O)(CCN1CCOCC1)c1ccc2ccccc2c1 (racemic) [Compound 139]
IC90 (μg/ml) SMU 33402 [1]: 18.9 µg/mL (≈ 31.6 µM)
IC90 (μg/ml) SPN 6305 [2]: 26.7 µg/mL (≈ 44.7 µM)

COc1nc2ccc(Br)cc2cc1C(c1ccccc1)C(O)(CCN1CCN(c2ncccn2)CC1)c1ccc2ccccc2c1 (stereo not drawn) [Compound 209]
IC90 [2]: 15.1 µg/mL (≈ 22.4 µM)

COc1nc2ccc(-c3ccco3)cc2cc1C(c1ccccc1)C(O)(CCN(C)C)c1cccc2ccccc12 (stereo not drawn) [Compound H]
IC90 [3]: 13.6 µg/mL (≈ 25.1 µM)
IC90 [2]: 13.6 µg/mL (≈ 25.1 µM)

COc1nc2ccc(Br)cc2cc1C(c1ccccc1)C(O)(CCN(C)C)c1ccc2c(Br)cccc2c1 (stereo not drawn) [Compound 130]
IC90 [1]: 10.1 µg/mL (≈ 15.9 µM)

COc1nc2ccc(Br)cc2cc1C(c1ccccc1)C(O)(CCN(C)C)c1ccc(F)c(F)c1 (stereo not drawn) [Compound 196]
IC90 [1]: 10.8 µg/mL (≈ 19.9 µM)

COc1nc2ccc(Br)cc2cc1C(c1ccccc1)C(O)(CCn1cncn1)c1ccccc1 (racemic) [Compound 53]
IC90 (μg/ml) SPN 6305 [2]: 5.9 µg/mL (≈ 11.1 µM)

COc1nc2cc(C)c(Br)cc2cc1C(c1ccccc1)C(O)(CCN(C)C)c1cc(F)cc(F)c1 (racemic) [Compound 227]
IC90 (μg/ml) SPN 6305 [2]: 5.0 µg/mL (≈ 9 µM)

COc1nc2ccc(Br)cc2cc1C(c1ccccc1)C(O)(CCN(C)C)c1cccs1 (stereo not drawn) [Compound 20]
IC90 (μg/ml) SPN 6305 [2]: 2.6 µg/mL (≈ 5.08 µM)

COc1nc2ccc(Br)cc2cc1C(c1ccccc1)C(O)(CCN(C)C)c1ccc2c3c(cccc13)CC2 (stereo not drawn) [Compound I]
IC90 [2]: 11.6 µg/mL (≈ 19.9 µM)

COc1nc2ccc(Br)cc2cc1C(c1ccccc1)C(O)(CCN1CCN(C)CC1)c1cccc2ccccc12 (racemic) [Compound 149]
IC90 (μg/ml) LMO 49594 [3]: 12.2 µg/mL (≈ 20 µM)

COc1nc2ccc(Br)cc2cc1C(c1ccccc1)C(O)(CCN1CCCCC1)c1ccc2cc(Br)ccc2c1 (stereo not drawn) [Compound 166]
IC90 [2]: 16.9 µg/mL (≈ 25.1 µM)

COc1nc2cc(C)c(Br)cc2cc1C(c1ccccc1)C(O)(CCN(C)C)c1cccc2ccccc12 (racemic) [Compound 226]
IC90 (μg/ml) SPN 6305 [2]: 14.3 µg/mL (≈ 25.1 µM)

COc1nc2ccc(Br)cc2cc1C(c1ccccc1)C(O)(CCN(C)C)c1cccc(F)c1 (stereo not drawn) [Compound 38]
IC90 (μg/ml) LMO 49594 [3]: 10.4 µg/mL (≈ 19.9 µM)

COc1nc2ccc(Br)cc2cc1C(c1ccc(Cl)cc1)C(O)(CCN(C)C)c1cccc2ccccc12 (stereo not drawn) [Compound 73]
IC90 [1]: 11.8 µg/mL (≈ 20 µM)
IC90 [4]: 14.8 µg/mL (≈ 25.1 µM)

COc1nc2cc(C)c(Br)cc2cc1C(c1ccccc1)C(O)(CCN(C)C)c1cccc(F)c1 (racemic) [Compound 215]
IC90 (μg/ml) LMO 49594 [3]: 10.7 µg/mL (≈ 19.9 µM)

COc1nc2ccc(Br)cc2cc1C(c1ccccc1)C(O)(CC[N+](C)(C)[O-])c1ccccc1 (racemic) [Compound 58]
IC90 (μg/ml) SMU 33402 [1]: 5.9 µg/mL (≈ 11.3 µM)
IC90 (μg/ml) SPY 8668 [4]: 8.3 µg/mL (≈ 15.9 µM)

COc1nc2ccc(Br)cc2cc1C(c1ccccc1)C(O)(CC[N+](C)(C)[O-])c1ccccc1 (racemic) [Compound 11]
IC90 (μg/ml) LMO 49594 [3]: 11.7 µg/mL (≈ 22.4 µM)
IC90 (μg/ml) SMU 33402 [1]: 10.4 µg/mL (≈ 19.9 µM)
IC90 (μg/ml) SPY 8668 [4]: 11.7 µg/mL (≈ 22.4 µM)

COc1nc2ccc(Br)cc2cc1C(c1ccccc1)C(O)(CCN(C)C)c1cccc(F)c1 (stereo not drawn) [Compound 108]
IC90 (μg/ml) SPN 6305 [2]: 13.1 µg/mL (≈ 25 µM)

COc1ccc2cc(C(O)(CCN(C)C)C(c3ccccc3)c3cc4cc(Br)ccc4nc3OC)ccc2c1 (stereo not drawn) [Compound 163]
IC90 [2]: 14.7 µg/mL (≈ 25.1 µM)

COc1nc2ccc(-c3ccccc3)cc2cc1C(c1ccccc1)C(O)(CCN(C)C)c1cccc2ccccc12 (stereo not drawn) [Compound 84]
IC90 [3]: 11 µg/mL (≈ 19.9 µM)
IC90 [1]: 11 µg/mL (≈ 19.9 µM)
IC90 [2]: 7 µg/mL (≈ 12.7 µM)
IC90 [4]: 11 µg/mL (≈ 19.9 µM)

COc1nc2ccc(Br)cc2cc1C(c1ccc(Cl)cc1)C(O)(CCN(C)C)c1ccccc1 (stereo not drawn) [Compound 37]
IC90 (μg/ml) SPN 6305 [2]: 12.1 µg/mL (≈ 22.4 µM)

CCN(CC)CCC(O)(c1ccccc1)C(c1ccccc1)c1cc2cc(Br)ccc2nc1OC (stereo not drawn) [Compound 19]
IC90 (μg/ml) SPN 6305 [2]: 13.4 µg/mL (≈ 25.1 µM)

COc1nc2cc(C)c(C)cc2cc1C(c1ccccc1)C(O)(CCN(C)C)c1cccc2ccccc12 (racemic) [Compound 229]
IC90 (μg/ml) SMU 33402 [1]: 22.5 µg/mL (≈ 44.6 µM)
IC90 (μg/ml) SPN 6305 [2]: 5.0 µg/mL (≈ 9.91 µM)
